Measurements taken from ChEMBL document CHEMBL1149929, “Novel 2-(2-furo[3,2-b]pyridinyl) pyrrolidines: potent neuronal nicotinic acetylcholine receptor ligands” (Bioorg Med Chem Lett, 1997).

Key:
Rattus norvegicus [1] = species on record: Rattus norvegicus; assay: Percent intrinsic activity relative to 100 uM (S)-nicotine.; format: functional
[2] = biological target: T1, Acetylcholine receptor subunit alpha (Homo sapiens, UniProt P02708); assay: Tested for functional activity against alpha-1 neuronal nicotinic acetylcholine receptor(nAChR) expressed in TE671 cells using isotopic rubidium efflux assay.; format: cell-based, TE-671
[3] = Percent intrinsic activity against IMR-32 cells relative to 100 uM (S)-nicotine.; format: functional, Homo sapiens
[4] = biological target: T2, Neuronal acetylcholine receptor; alpha4/beta2 (Homo sapiens, UniProt P17787+P43681); assay: Tested for functional activity against neuronal nicotinic acetylcholine receptor(nAChR) expressed in K177 cells using isotopic rubidium efflux assay.; format: cell-based
[5] = biological target: T2, Neuronal acetylcholine receptor; alpha4/beta2; assay: (§1) Percent intrinsic activity against K177 cells relative to 100 uM (S)-nicotine.; format: functional, cell-based
[6] = Tested for functional activity against neuronal nicotinic acetylcholine receptor(nAChR) expressed in IMR-32 cells using isotopic rubidium efflux assay.; format: cell-based; conditions: Homo sapiens
Rattus norvegicus [7] = species on record: Rattus norvegicus; assay: Tested for nAChR-mediated dopamine release from rat striatal slices.; format: functional
[8] = biological target: T1, Acetylcholine receptor subunit alpha; assay: Percent intrinsic activity against TE671 cells relative to 100 uM (S)-nicotine.; format: functional, cell-based; conditions: TE-671
[9] = biological target: Neuronal acetylcholine receptor; assay: Tested for neuronal nicotinic acetylcholine receptor (nAChR) binding in a whole rat brain preparation using […] as the radioligand.
[10] = biological target: T1, Acetylcholine receptor subunit alpha; assay: as §1; format: functional, cell-based

T2 sequence (P17787 whole entry): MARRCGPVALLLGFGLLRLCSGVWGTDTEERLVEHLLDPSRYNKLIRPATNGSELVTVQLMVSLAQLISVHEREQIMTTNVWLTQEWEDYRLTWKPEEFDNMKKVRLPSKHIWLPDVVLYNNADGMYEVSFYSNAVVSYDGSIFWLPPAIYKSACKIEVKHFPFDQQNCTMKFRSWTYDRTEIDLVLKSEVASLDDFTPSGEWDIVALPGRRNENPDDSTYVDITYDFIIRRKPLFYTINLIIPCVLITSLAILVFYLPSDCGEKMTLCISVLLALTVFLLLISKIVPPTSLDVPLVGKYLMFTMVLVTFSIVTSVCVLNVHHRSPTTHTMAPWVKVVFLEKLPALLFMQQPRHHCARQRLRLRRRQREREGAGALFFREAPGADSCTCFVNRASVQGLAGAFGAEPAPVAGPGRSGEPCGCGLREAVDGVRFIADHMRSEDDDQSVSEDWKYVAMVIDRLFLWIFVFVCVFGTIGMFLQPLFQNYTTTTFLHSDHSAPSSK
T2 sequence (P43681 whole entry): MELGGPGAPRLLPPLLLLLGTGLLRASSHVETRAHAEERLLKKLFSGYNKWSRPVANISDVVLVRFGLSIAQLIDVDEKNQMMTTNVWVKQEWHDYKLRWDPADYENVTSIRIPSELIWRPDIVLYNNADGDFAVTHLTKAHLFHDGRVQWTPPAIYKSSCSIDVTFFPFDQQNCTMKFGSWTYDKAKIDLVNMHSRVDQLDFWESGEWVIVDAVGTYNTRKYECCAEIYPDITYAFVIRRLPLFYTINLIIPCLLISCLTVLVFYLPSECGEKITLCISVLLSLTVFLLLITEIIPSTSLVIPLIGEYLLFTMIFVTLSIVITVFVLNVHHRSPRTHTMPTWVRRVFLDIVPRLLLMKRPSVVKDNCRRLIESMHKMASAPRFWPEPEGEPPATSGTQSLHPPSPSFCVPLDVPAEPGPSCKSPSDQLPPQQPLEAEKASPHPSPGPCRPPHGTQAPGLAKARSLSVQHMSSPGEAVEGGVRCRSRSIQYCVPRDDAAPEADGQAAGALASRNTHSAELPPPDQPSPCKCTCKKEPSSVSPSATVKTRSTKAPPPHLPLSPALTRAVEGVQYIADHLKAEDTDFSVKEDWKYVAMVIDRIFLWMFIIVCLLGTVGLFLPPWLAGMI
T1 sequence (P02708 whole entry): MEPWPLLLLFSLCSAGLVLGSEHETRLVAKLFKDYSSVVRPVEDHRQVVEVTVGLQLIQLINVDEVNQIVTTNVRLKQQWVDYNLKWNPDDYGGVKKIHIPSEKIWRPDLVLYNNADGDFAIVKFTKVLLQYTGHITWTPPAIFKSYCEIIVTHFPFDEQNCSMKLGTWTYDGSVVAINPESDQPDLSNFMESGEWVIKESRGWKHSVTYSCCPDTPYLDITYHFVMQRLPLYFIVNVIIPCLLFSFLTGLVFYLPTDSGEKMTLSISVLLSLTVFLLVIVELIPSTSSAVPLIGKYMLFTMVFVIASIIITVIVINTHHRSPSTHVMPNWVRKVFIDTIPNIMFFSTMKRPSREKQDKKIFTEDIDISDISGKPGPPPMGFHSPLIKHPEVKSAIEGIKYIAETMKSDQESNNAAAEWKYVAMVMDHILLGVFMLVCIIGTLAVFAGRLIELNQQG

SMILES	Intrinsic activity (Rattus norvegicus [1]) [%]	EC50 [2] [µM]	Intrinsic activity [3] [%]	EC50 [4] [µM]	Intrinsic activity [5] [%]	EC50 [6] [µM]	EC50 (Rattus norvegicus [7]) [µM]	Intrinsic activity [8] [%]	Ki [9] [µM]	Intrinsic activity [10] [%]
CN1CCC[C@H]1COc1cccnc1	74	34	77.2	0.75	100	24	107	40	–	–
CN1CCC[C@@H]1c1cc2ncccc2o1	–	–	15.2	> 1000	5.7	> 1000	–	–	0.0979	–
CN1CCC[C@H]1c1cccnc1 [NICOTINE]	100	180	100	–	100	21	–	100	–	–
c1cnc2cc([C@H]3CCCN3)oc2c1	–	–	57.8	11	30	41.5	–	–	0.00511	–
CN1CCC[C@H]1c1cc2ncccc2o1	43	> 100	10.6	3.2	81	> 1000	141	18.9	0.00273	–
Cc1cc([C@@H]2CCCN2C)on1 [ABT-418]	100	411	85	10.6	93	64	380	38	–	–
c1cnc2cc([C@@H]3CCCN3)oc2c1	–	–	9.2	–	–	> 1000	–	–	0.0758	7.4
